Earlier results, collected in patent US20120315337A1, “MULTIPARTICULATE 5-HTP COMPOSITIONS AND RELATED METHODS” (priority 2011, published 2012).

Settings: comparison of antidepressant drug fluoxamine with 5-HTP; background statement

## N[C@@H](Cc1c[nH]c2ccc(O)cc12)C(=O)O [5-HTP, L-5-hydroxytryptophan]
  efficacy in clinical trial: equally effective

## COCCCC/C(=N\OCCN)c1ccc(C(F)(F)F)cc1 [fluoxamine]
  efficacy in clinical trial: equally effective
